Values quoted from earlier work, collected in patent US20250099551A1, “THERMOSTABLE FORMULATION OF A21G HUMAN INSULIN” (priority 2018, published 2025).

conditions: 25° C.

In order of falling “Metal binding stability constant log K for zinc” value:
1. O=C(O)CN(CCN(CC(=O)O)CC(=O)O)CC(=O)O [EDTA]  14.5
2. O=C(O)CN(CCOCCOCCN(CC(=O)O)CC(=O)O)CC(=O)O [EGTA]  12.6
3. N[C@@H](Cc1c[nH]cn1)C(=O)O [histidine]  6.91
4. O=C(O)CC(O)(CC(=O)O)C(=O)O [citrate]  4.93
